This is an account of results in ChEMBL document CHEMBL1201862, “PubChem BioAssay data set” (2004).

Some test systems named below: SK-MEL-2; OVCAR-4; HCT-15; KM12; SR; SK-MEL-5; SNB-75; MDA-MB-435; HOP-62; CAKI-1; SF-295; UACC-257; UACC-62; OVCAR-3; NCI-H23; DU-145; HCC 2998.
What all share (test): NCI tumour cell line growth inhibition, 48 h

Structures are written as SMILES.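 Results reflect a 48-hour exposure of cells in 96-well plates to compound at five concentrations. GI50 = concentration required for 50% inhibition of growth.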 Calls of active or inactive are those of the source. Cut-off read from the data, not from the text of the source: active = GI50 up to about 1.1 µM and inactive = higher. Residues, ends and D or L forms follow the SMILES beside them. *: point of attachment. Boc = CC(C)(C)OC(=O)*; OBn = c1ccc(CO*)cc1

Take `C/C(=N\Nc1cc(CN2CCCC2)c(-c2ccc(Cl)cc2)nn1)C(=O)O`: the GI50 in the assay on SK-MEL-2 was > 100 µM (inactive); with OVCAR-4 it was > 100 µM (inactive); in the assay with HCT-15, more than 100 µM; with KM12, > 100 µM (inactive); with SR, > 100 µM (inactive); with SK-MEL-5 it was > 100 µM (inactive). For the same compound, the GI50 in the assay with SNB-75, in the assay on MDA-MB-435, in the assay with HOP-62, in the assay on CAKI-1, with SF-295 and in the assay with UACC-257 was > 100 µM (inactive) each time. Moreover, the GI50 in the assay on UACC-62 is > 100 µM (inactive); in the assay with OVCAR-3 it was 90.2 µM (inactive); in the assay on NCI-H23, > 100 µM (inactive); in the assay with DU-145 it was > 100 µM (inactive).
As to `COC(=O)C1(Cc2ccccc2)Cc2ccccc2C1O` (stereo unspecified), the GI50 with OVCAR-4 was 29.8 µM (inactive); in the assay on HCT-15 it was more than 100 µM; in the assay with KM12 it was > 100 µM (inactive); with SR, 92.9 µM (inactive); in the assay on SK-MEL-5, 37.3 µM (inactive); in the assay with SNB-75, 87.7 µM (inactive). The GI50 in the assay on MDA-MB-435, in the assay with HOP-62, in the assay with CAKI-1, with SF-295, in the assay with UACC-257 and with UACC-62 was > 100 µM (inactive) throughout. The GI50 in the assay on HCC 2998 is > 100 µM (inactive); in the assay on OVCAR-3 it was > 100 µM (inactive); in the assay with NCI-H23, 63 µM (inactive); in the assay on DU-145, > 100 µM (inactive).
In the case of `O=C(O)C1C2CCC(O2)C1C(=O)Nc1cccc2cccnc12` (stereo unspecified), the GI50 in the assay with SK-MEL-2 is > 100 µM (inactive); in the assay on OVCAR-4 it was > 100 µM (inactive); with HCT-15 it was more than 100 µM; in the assay on KM12 it was > 100 µM (inactive); with SR, > 100 µM (inactive); in the assay on SNB-75 it was > 100 µM (inactive). Also, the GI50 in the assay on MDA-MB-435, in the assay with HOP-62, in the assay on CAKI-1, in the assay with SF-295, with UACC-257 and in the assay on UACC-62 was > 100 µM (inactive) each time. In addition, the GI50 was 31.1 µM (inactive) with HCC 2998, > 100 µM (inactive) in the assay with OVCAR-3, > 100 µM (inactive) with NCI-H23 and > 100 µM (inactive) with DU-145.
For `Cn1c2ccccc2c(=O)c2cccc(C(=O)NCC(=O)O)c21`, the GI50 is > 100 µM (inactive) in the assay with SK-MEL-2; > 100 µM (inactive) in the assay with OVCAR-4; more than 100 µM in the assay with HCT-15; > 100 µM (inactive) in the assay on KM12; > 100 µM (inactive) with SR; > 100 µM (inactive) in the assay on SK-MEL-5. Further, the GI50 with SNB-75 was 88.9 µM (inactive); in the assay on MDA-MB-435, > 100 µM (inactive); in the assay with HOP-62 it was > 100 µM (inactive); in the assay with SF-295, > 100 µM (inactive); with UACC-257, > 100 µM (inactive); in the assay with UACC-62, > 100 µM (inactive). Moreover, the GI50 in the assay with HCC 2998, in the assay on OVCAR-3, in the assay on NCI-H23 and in the assay with DU-145 was > 100 µM (inactive) throughout.
As for `COc1nc2ncc([C@@H](O)[C@H](O)CO)nc2c(=O)n1C`, the GI50 is > 100 µM (inactive) with SK-MEL-2; > 100 µM (inactive) in the assay with OVCAR-4; more than 100 µM with HCT-15; > 100 µM (inactive) in the assay on KM12; > 100 µM (inactive) with SR; > 100 µM (inactive) in the assay on SK-MEL-5. The GI50 with SNB-75, in the assay on MDA-MB-435, with HOP-62, in the assay with CAKI-1, with SF-295 and with UACC-257 was > 100 µM (inactive) throughout. Moreover, the GI50 in the assay with UACC-62, with OVCAR-3 and in the assay with DU-145 was > 100 µM (inactive) in each case.
As for `COc1c(-c2ccc(F)cc2)oc2cc(O)cc(O)c2c1=O`, the GI50 is 23.3 µM (inactive) with SK-MEL-2; 18.5 µM in the assay with HCT-15; 30.5 µM (inactive) in the assay with KM12; 28.2 µM (inactive) in the assay with SR; 16.5 µM (inactive) in the assay on SK-MEL-5; 19.2 µM (inactive) in the assay with SNB-75. Further, the GI50 with MDA-MB-435 is 32.1 µM (inactive); with HOP-62, 18.5 µM (inactive); with CAKI-1 it was 24.3 µM (inactive); in the assay with SF-295, 26.1 µM (inactive); in the assay on HCC 2998 it was 14.5 µM (inactive); in the assay with OVCAR-3, 34.1 µM (inactive). The GI50 is 29.6 µM (inactive) in the assay on NCI-H23 and 29 µM (inactive) in the assay with DU-145.
In the case of `CSCC[C@H](NC(=O)[C@H](CC(C)C)NC(=O)[C@@H](Cc1ccccc1)NC(=O)CNC(=O)[C@@H](NC(=O)[C@H](C)NC(=O)[C@H](Cc1c[nH]c2ccccc12)NC(=O)[C@H](CCC(N)=O)NC(=O)[C@H](N)CC(N)=O)C(C)C)C(N)=O`, the GI50 with OVCAR-4 was > 12.5 µM (inactive); in the assay on HCT-15, more than 12.5 µM; in the assay on KM12 it was > 12.5 µM (inactive); with SR it was 0.0269 µM (active); in the assay on SK-MEL-5 it was > 12.5 µM (inactive); in the assay on SNB-75 it was > 12.5 µM (inactive). In addition, the GI50 in the assay with MDA-MB-435, in the assay with HOP-62, in the assay on CAKI-1, in the assay on SF-295, in the assay on UACC-257 and in the assay with UACC-62 was > 12.5 µM (inactive) each time. The GI50 in the assay with HCC 2998, in the assay with OVCAR-3, with NCI-H23 and with DU-145 was > 12.5 µM (inactive) in each case.
Consider `N#CC(CCN1CCC(Nc2ccccc2)(c2nnnn2C2CCCCC2)CC1)(c1ccccc1)c1ccccc1`, for which the GI50 with SK-MEL-2 is > 100 µM (inactive); in the assay on OVCAR-4, > 100 µM (inactive); with HCT-15, more than 100 µM; in the assay with KM12 it was > 100 µM (inactive); in the assay on SR, > 100 µM (inactive); in the assay with SK-MEL-5, > 100 µM (inactive). Moreover, the GI50 in the assay on SNB-75, in the assay with MDA-MB-435, with HOP-62, with SF-295, in the assay with UACC-257 and in the assay on UACC-62 was > 100 µM (inactive) in each case. Further, the GI50 with HCC 2998 is > 100 µM (inactive); with OVCAR-3 it was > 100 µM (inactive); with NCI-H23, > 100 µM (inactive); with DU-145 it was 81.3 µM (inactive).
Regarding `CC(=O)OCC1OC(n2c(C)c(/N=N/c3ccc(C)cc3)c(C)c(C#N)c2=S)C(OC(C)=O)C(OC(C)=O)C1OC(C)=O` (stereo unspecified), the GI50 with OVCAR-4 is 41.4 µM (inactive); with KM12, > 100 µM (inactive); in the assay on SR, > 100 µM (inactive); in the assay on SK-MEL-5, 43.2 µM (inactive); with SNB-75, 60.4 µM (inactive); in the assay on MDA-MB-435, > 100 µM (inactive). Moreover, the GI50 in the assay on HOP-62 is > 100 µM (inactive); in the assay on CAKI-1 it was > 100 µM (inactive); in the assay with SF-295, 90.6 µM (inactive); in the assay on UACC-257 it was > 100 µM (inactive); with UACC-62, 50.2 µM (inactive); in the assay with HCC 2998, > 100 µM (inactive). For the same compound, the GI50 in the assay with OVCAR-3, in the assay with NCI-H23 and in the assay on DU-145 was > 100 µM (inactive) each time.
As to `NS(=O)(=O)c1nnc(NSc2ccc([N+](=O)[O-])cc2)s1`, the GI50 in the assay with SK-MEL-2 was > 100 µM (inactive); in the assay on OVCAR-4, 48.9 µM (inactive); in the assay on HCT-15 it was more than 100 µM; in the assay on KM12 it was > 10 µM (inactive); with SR, 59.6 µM (inactive); in the assay on SK-MEL-5, > 100 µM (inactive). The GI50 with MDA-MB-435 was > 100 µM (inactive); in the assay on HOP-62, > 100 µM (inactive); with CAKI-1 it was 92.3 µM (inactive); in the assay with SF-295 it was > 100 µM (inactive); in the assay on UACC-257 it was > 100 µM (inactive); with UACC-62 it was > 100 µM (inactive). Also, the GI50 in the assay on HCC 2998, in the assay on OVCAR-3, in the assay on NCI-H23 and with DU-145 was > 100 µM (inactive) throughout.
For `CCN(CC)CCC(=O)/C=C/c1ccccc1`, the GI50 in the assay with SK-MEL-2 was 23.3 µM (inactive); in the assay on OVCAR-4 it was 21.1 µM (inactive); in the assay with HCT-15, 15.6 µM; in the assay on KM12, 6.5 µM (inactive); with SR it was 3.41 µM (inactive); with SK-MEL-5, 18.4 µM (inactive). The GI50 was 13.2 µM (inactive) with SNB-75; 11 µM (inactive) in the assay with MDA-MB-435; 20.3 µM (inactive) with HOP-62; 3.27 µM (inactive) in the assay with CAKI-1; 18.8 µM (inactive) with SF-295; 16.2 µM (inactive) with UACC-257. The GI50 in the assay with HCC 2998 is 19.5 µM (inactive); with OVCAR-3, 3.54 µM (inactive); in the assay with NCI-H23, 18.2 µM (inactive); in the assay on DU-145, 22.5 µM (inactive).
Take `CC(NC(=O)CNC(=O)OC(C)(C)C)C(=O)NC(Cc1ccccc1)C(=O)OCc1ccccc1` (stereo not drawn) (Boc-Gly-Ala-Phe-OBn; configuration not given here): the GI50 was > 100 µM (inactive) with SK-MEL-2; > 100 µM (inactive) with OVCAR-4; more than 100 µM with HCT-15; > 100 µM (inactive) in the assay with KM12; 23.8 µM (inactive) in the assay with SR; > 100 µM (inactive) with SK-MEL-5. The GI50 in the assay on SNB-75 was 56.2 µM (inactive); with MDA-MB-435 it was > 100 µM (inactive); in the assay with CAKI-1 it was > 100 µM (inactive); with SF-295, > 100 µM (inactive); in the assay with UACC-257, > 100 µM (inactive); in the assay on UACC-62 it was > 100 µM (inactive). The GI50 with NCI-H23 and in the assay with DU-145 was > 100 µM (inactive) in each case.
